In one test the test system is MRSA-002. Nature of the test: Viable plate count, resistant bacteria, protocol of Example 1.
Another test deals with MRSA-006. The test is described as above.
The subject of test [1] is MRSE 700563. The description is as above.
Another test concerns MRSE 51625. The description is as above.
The test system of the next test is MRSA 006. Description: Zone of inhibition of treated Nu-Gel hydrogel squares on inoculated TSA agar.
Test [2] has as its system MRSE 700563. The test is described as above.

The values that follow come from US8604073B2, “Antimicrobial composition” (Ethicon, Inc., priority 2006, dated 2013).

With `CCCCCCCCCCCC(=O)N[C@@H](CCCN=C(N)N)C(=O)OCC.Cl` [LAE, ethyl ester of the lauramide of the arginine monohydrochloride], in the test with MRSA-002 (5 ppm), the “CFU/ml MRSA-002” value is listed as 5.0 × 10^6 CFU/ml. Also, the “CFU/ml MRSA-006” value with MRSA-006 (5 ppm) was 6.2 × 10^8 CFU/ml. In addition, in the test on MRSE 700563 [1] (5 ppm), the “CFU/ml MRSE 700563” value is 4.0 × 10^8 CFU/ml. In addition, the “CFU/ml MRSE 51625” value with MRSE 51625 (5 ppm) is given as 1.2 × 10^9 CFU/ml. For the same compound, the “Zone of inhibition (mm) MRSA 006” value with MRSA 006 (6 ug/cm^2, 48 hours at 37° C.) was 0 mm. Moreover, the “Zone of inhibition (mm) MRSE 700563” value with MRSE 700563 [2] (6 ug/cm^2, 48 hours at 37° C.) worked out at 0 mm.
On to Polymixin B [Polymixin B (PY)], for which the “CFU/ml MRSA-002” value in the test with MRSA-002 (100 ppm) is 1.2 × 10^9 CFU/ml. The “CFU/ml MRSA-006” value with MRSA-006 (100 ppm) is reported as 1.2 × 10^9 CFU/ml. Besides, the “CFU/ml MRSE 700563” value in the test on MRSE 700563 [1] (100 ppm) is reported as 1.2 × 10^9 CFU/ml. Further, the “CFU/ml MRSE 51625” value in the test on MRSE 51625 (100 ppm) is 6.2 × 10^8 CFU/ml. In addition, in the test on MRSA 006 (60 ug/cm^2, 48 hours at 37° C.), the “Zone of inhibition (mm) MRSA 006” value is given as 0 mm. Also, in the test with MRSE 700563 [2] (60 ug/cm^2, 48 hours at 37° C.), the “Zone of inhibition (mm) MRSE 700563” value is 0 mm.
Consider `Cc1nnc(SCC2=C(C(=O)O)N3C(=O)[C@@H](NC(=O)Cn4cnnn4)[C@H]3SC2)s1` [Cefazolin (CF), Cefazolin], for which the “CFU/ml MRSA-002” value with MRSA-002 (100 ppm) was 1.1 × 10^9 CFU/ml. Also, the “CFU/ml MRSA-006” value with MRSA-006 (100 ppm) is given as 1.4 × 10^5 CFU/ml. For the same compound, the “CFU/ml MRSE 700563” value in the test on MRSE 700563 [1] (100 ppm) is 1.5 × 10^8 CFU/ml. Besides, in the test with MRSE 51625 (100 ppm), the “CFU/ml MRSE 51625” value is 1.5 × 10^6 CFU/ml. In addition, in the test with MRSA 006 (60 ug/cm^2, 48 hours at 37° C.), the “Zone of inhibition (mm) MRSA 006” value was 0 mm. In the test with MRSE 700563 [2] (60 ug/cm^2, 48 hours at 37° C.), the “Zone of inhibition (mm) MRSE 700563” value is 0 mm.
